Test results reported in patent US11912686B2 (Gilead Sciences, Inc., priority 2020, dated 2024).

Molecular target: human LPAR1 (Homo sapiens (Human), UniProt Q92633)
Assay: LPAR1 intracellular calcium mobilization assay (antagonist mode, FLIPR)
Type: cell-based
Settings: CHO-K1 EDG2 cells expressing human LPAR1, LPA 18:2 at EC80 (100 nM), test compound 0.5 nM to 10 μM

Sequence of human LPAR1 (Q92633 whole entry): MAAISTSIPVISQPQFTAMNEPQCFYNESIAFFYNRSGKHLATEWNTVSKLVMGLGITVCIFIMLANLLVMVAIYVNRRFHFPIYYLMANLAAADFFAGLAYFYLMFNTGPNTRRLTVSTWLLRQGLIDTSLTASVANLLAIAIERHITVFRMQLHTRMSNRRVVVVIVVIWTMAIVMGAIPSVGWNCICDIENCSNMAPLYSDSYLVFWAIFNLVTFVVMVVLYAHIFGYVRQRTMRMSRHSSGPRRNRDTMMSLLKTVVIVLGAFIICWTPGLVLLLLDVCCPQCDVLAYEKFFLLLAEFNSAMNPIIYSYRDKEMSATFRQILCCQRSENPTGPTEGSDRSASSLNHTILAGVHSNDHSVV

In the case of `Cc1cc(C(=O)Nc2ccc(-c3nnn(C)c3NC(=O)O[C@H](C)c3cc(F)cnc3F)nc2)cnn1` [Compound 231, (R)-1-(2,5-difluoropyridin-3-yl)ethyl (1-methyl-4-(5-(6-methylpyridazine-4-carboxamido)pyridin-2-yl)-1H-1,2,3-triazol-5-yl)carbamate], the EC50 is reported as 412 nM.
`C[C@@H](OC(=O)Nc1c(-c2ccc(NC(=O)c3ccnc(N)c3)cn2)nnn1C)c1cc(F)cnc1F` [Compound 232, (R)-1-(2,5-difluoropyridin-3-yl)ethyl (4-(5-(2-aminoisonicotinamido)pyridin-2-yl)-1-methyl-1H-1,2,3-triazol-5-yl)carbamate] gave an EC50 of 1110 nM.
`Cc1ncc(C(=O)Nc2ccc(-c3nnn(C)c3NC(=O)O[C@H](C)c3cc(F)cnc3F)nc2)cn1` [Compound 234, (R)-1-(2,5-difluoropyridin-3-yl)ethyl (1-methyl-4-(5-(2-methylpyrimidine-5-carboxamido)pyridin-2-yl)-1H-1,2,3-triazol-5-yl)carbamate] was tested, and the EC50 was 136 nM.
`C[C@@H](OC(=O)Nc1c(-c2ccc(NC(=O)c3cnc(C#N)nc3)cn2)nnn1C)c1cc(F)cnc1F` [Compound 235, (R)-1-(2,5-difluoropyridin-3-yl)ethyl (4-(5-(2-cyanopyrimidine-5-carboxamido)pyridin-2-yl)-1-methyl-1H-1,2,3-triazol-5-yl)carbamate] showed an EC50 of 26.5 nM.
Molecule `C[C@@H](OC(=O)Nc1c(-c2ccc(NC(=O)c3ccc(=O)n(C)c3)cn2)nnn1C)c1cc(F)cnc1F` [Compound 236, (R)-1-(2,5-difluoropyridin-3-yl)ethyl (1-methyl-4-(5-(1-methyl-6-oxo-1,6-dihydropyridine-3-carboxamido)pyridin-2-yl)-1H-1,2,3-triazol-5-yl)carbamate] has an EC50 of 1660 nM.
Work on `Cc1nonc1C(=O)Nc1ccc(-c2nnn(C)c2NC(=O)O[C@H](C)c2cc(F)cnc2F)nc1` [Compound 239, (R)-1-(2,5-difluoropyridin-3-yl)ethyl (1-methyl-4-(5-(4-methyl-1,2,5-oxadiazole-3-carboxamido)pyridin-2-yl)-1H-1,2,3-triazol-5-yl)carbamate] yielded an EC50 of 62.3 nM.
For `C[C@@H](OC(=O)Nc1c(-c2ccc(NC(=O)c3cc(F)cnc3F)cn2)nnn1C)c1cc(F)cnc1F` [Compound 241, (R)-1-(2,5-difluoropyridin-3-yl)ethyl (4-(5-(2,5-difluoronicotinamido)pyridin-2-yl)-1-methyl-1H-1,2,3-triazol-5-yl)carbamate], the EC50 was 111 nM.
For `C[C@@H](OC(=O)Nc1c(-c2ccc(NC(=O)c3ccc(C(F)(F)F)nc3)cn2)nnn1C)c1cc(F)cnc1F` [Compound 242, (R)-1-(2,5-difluoropyridin-3-yl)ethyl (1-methyl-4-(5-(6-(trifluoromethyl)nicotinamido)pyridin-2-yl)-1H-1,2,3-triazol-5-yl)carbamate], the EC50 was 63.3 nM.
`C[C@@H](OC(=O)Nc1c(-c2ccc(NC(=O)c3ccnc(F)c3F)cn2)nnn1C)c1cc(F)cnc1F` [Compound 243, (R)-1-(2,5-difluoropyridin-3-yl)ethyl (4-(5-(2,3-difluoroisonicotinamido)pyridin-2-yl)-1-methyl-1H-1,2,3-triazol-5-yl)carbamate] gave an EC50 of 71.9 nM.
`C[C@@H](OC(=O)Nc1c(-c2ccc(NC(=O)c3cc(F)nc(F)c3)cn2)nnn1C)c1cc(F)cnc1F` [Compound 244, (R)-1-(2,5-difluoropyridin-3-yl)ethyl (4-(5-(2,6-difluoroisonicotinamido)pyridin-2-yl)-1-methyl-1H-1,2,3-triazol-5-yl)carbamate] gave an EC50 of 131 nM.
`C[C@@H](OC(=O)Nc1c(-c2ccc(NC(=O)[C@]3(C#N)C[C@H]3C(F)F)cn2)nnn1C)c1cc(F)cnc1F` [Compound 245, (R)-1-(2,5-difluoropyridin-3-yl)ethyl (4-(5-((1R,2R)-1-cyano-2-(difluoromethyl)cyclopropane-1-carboxamido)pyridin-2-yl)-1-methyl-1H-1,2,3-triazol-5-yl)carbamate] gave an EC50 of 11.7 nM.
`C[C@@H](OC(=O)Nc1c(-c2ccc(NC(=O)[C@@]3(C#N)C[C@@H]3C(F)F)cn2)nnn1C)c1cc(F)cnc1F` [Compound 246, (R)-1-(2,5-difluoropyridin-3-yl)ethyl (4-(5-((1S,2S)-1-cyano-2-(difluoromethyl)cyclopropane-1-carboxamido)pyridin-2-yl)-1-methyl-1H-1,2,3-triazol-5-yl)carbamate] showed an EC50 of 103 nM.
`Cc1nccc(C(=O)Nc2ccc(-c3nnn(C)c3NC(=O)O[C@H](C)c3cc(F)cnc3F)nc2)n1` [Compound 249, (R)-1-(2,5-difluoropyridin-3-yl)ethyl (1-methyl-4-(5-(2-methylpyrimidine-4-carboxamido)pyridin-2-yl)-1H-1,2,3-triazol-5-yl)carbamate] gave an EC50 of 537 nM.
`C[C@@H](OC(=O)Nc1c(-c2ccc(NC(=O)c3ccc(Cl)nn3)cn2)nnn1C)c1cc(F)cnc1F` [Compound 250, (R)-1-(2,5-difluoropyridin-3-yl)ethyl (4-(5-(6-chloropyridazine-3-carboxamido)pyridin-2-yl)-1-methyl-1H-1,2,3-triazol-5-yl)carbamate] gave an EC50 of 276 nM.
Molecule `C[C@@H](OC(=O)Nc1c(-c2ccc(NC(=O)c3cnc(C(F)(F)F)nc3)cn2)nnn1C)c1cc(F)cnc1F` [Compound 251, (R)-1-(2,5-difluoropyridin-3-yl)ethyl (1-methyl-4-(5-(2-(trifluoromethyl)pyrimidine-5-carboxamido)pyridin-2-yl)-1H-1,2,3-triazol-5-yl)carbamate] has an EC50 of 38.5 nM.
`C[C@@H](OC(=O)Nc1c(-c2ccc(NC(=O)c3cnc(C(F)F)nc3)cn2)nnn1C)c1cc(F)cnc1F` [Compound 252, (R)-1-(2,5-difluoropyridin-3-yl)ethyl (4-(5-(2-(difluoromethyl)pyrimidine-5-carboxamido)pyridin-2-yl)-1-methyl-1H-1,2,3-triazol-5-yl)carbamate] showed an EC50 of 73.5 nM.
Work on `C[C@@H](OC(=O)Nc1c(-c2ccc(NC(=O)c3cnccc3Cl)cn2)nnn1C)c1cc(F)cnc1F` [Compound 253, (R)-1-(2,5-difluoropyridin-3-yl)ethyl (4-(5-(4-chloronicotinamido)pyridin-2-yl)-1-methyl-1H-1,2,3-triazol-5-yl)carbamate] yielded an EC50 of 551 nM.
For `C[C@@H](OC(=O)Nc1c(-c2ccc(NC(=O)c3ccc(C(F)(F)F)nc3F)cn2)nnn1C)c1cc(F)cnc1F` [Compound 254, (R)-1-(2,5-difluoropyridin-3-yl)ethyl (4-(5-(2-fluoro-6-(trifluoromethyl)nicotinamido)pyridin-2-yl)-1-methyl-1H-1,2,3-triazol-5-yl)carbamate], the EC50 was 18.1 nM.
Work on `C[C@@H](OC(=O)Nc1c(-c2ccc(NC(=O)c3cnc(F)cc3F)cn2)nnn1C)c1cc(F)cnc1F` [Compound 255, (R)-1-(2,5-difluoropyridin-3-yl)ethyl (4-(5-(4,6-difluoronicotinamido)pyridin-2-yl)-1-methyl-1H-1,2,3-triazol-5-yl)carbamate] yielded an EC50 of 346 nM.
Molecule `Cc1ncc(C(=O)Nc2ccc(-c3nnn(C)c3NC(=O)O[C@H](C)c3cc(F)cnc3F)nc2)o1` [Compound 256, (R)-1-(2,5-difluoropyridin-3-yl)ethyl (1-methyl-4-(5-(2-methyloxazole-5-carboxamido)pyridin-2-yl)-1H-1,2,3-triazol-5-yl)carbamate] has an EC50 of 209 nM.
Work on `Cc1nnc(C(=O)Nc2ccc(-c3nnn(C)c3NC(=O)O[C@H](C)c3cc(F)cnc3F)nc2)o1` [Compound 257, (R)-1-(2,5-difluoropyridin-3-yl)ethyl (1-methyl-4-(5-(5-methyl-1,3,4-oxadiazole-2-carboxamido)pyridin-2-yl)-1H-1,2,3-triazol-5-yl)carbamate] yielded an EC50 of 443 nM.
For `C[C@@H](OC(=O)Nc1c(-c2ccc(NC(=O)c3cc(C#N)no3)cn2)nnn1C)c1cc(F)cnc1F` [Compound 258, (R)-1-(2,5-difluoropyridin-3-yl)ethyl (4-(5-(3-cyanoisoxazole-5-carboxamido)pyridin-2-yl)-1-methyl-1H-1,2,3-triazol-5-yl)carbamate], the EC50 was 19.3 nM.
In the case of `C[C@@H](OC(=O)Nc1c(-c2ccc(NC(=O)c3cnnc(C(F)(F)F)c3)cn2)nnn1C)c1cc(F)cnc1F` [Compound 259, (R)-1-(2,5-difluoropyridin-3-yl)ethyl (1-methyl-4-(5-(6-(trifluoromethyl)pyridazine-4-carboxamido)pyridin-2-yl)-1H-1,2,3-triazol-5-yl)carbamate], the EC50 is reported as 101 nM.
`Cc1cc(C(=O)Nc2ccc(-c3nnn(C)c3NC(=O)O[C@H](C)c3cc(F)cnc3F)nc2)on1` [Compound 260, (R)-1-(2,5-difluoropyridin-3-yl)ethyl (1-methyl-4-(5-(3-methylisoxazole-5-carboxamido)pyridin-2-yl)-1H-1,2,3-triazol-5-yl)carbamate] showed an EC50 of 161 nM.
`C[C@@H](OC(=O)Nc1c(-c2ccc(NC(=O)c3ccnc(C(F)(F)F)c3F)cn2)nnn1C)c1cc(F)cnc1F` [Compound 261, (R)-1-(2,5-difluoropyridin-3-yl)ethyl (4-(5-(3-fluoro-2-(trifluoromethyl)isonicotinamido)pyridin-2-yl)-1-methyl-1H-1,2,3-triazol-5-yl)carbamate] gave an EC50 of 11.9 nM.
With `C[C@@H](OC(=O)Nc1c(-c2ccc(NC(=O)c3ccc(Cl)nc3F)cn2)nnn1C)c1cc(F)cnc1F` [Compound 262, (R)-1-(2,5-difluoropyridin-3-yl)ethyl (4-(5-(6-chloro-2-fluoronicotinamido)pyridin-2-yl)-1-methyl-1H-1,2,3-triazol-5-yl)carbamate] the EC50 was 23.7 nM.
`C[C@@H](OC(=O)Nc1c(-c2ccc(NC(=O)c3cncc(F)c3Cl)cn2)nnn1C)c1cc(F)cnc1F` [Compound 263, (R)-1-(2,5-difluoropyridin-3-yl)ethyl (4-(5-(4-chloro-5-fluoronicotinamido)pyridin-2-yl)-1-methyl-1H-1,2,3-triazol-5-yl)carbamate] was tested, and the EC50 was 691 nM.
Work on `C[C@@H](OC(=O)Nc1c(-c2ccc(NC(=O)c3cc(F)nc(F)c3F)cn2)nnn1C)c1cc(F)cnc1F` [Compound 264, (R)-1-(2,5-difluoropyridin-3-yl)ethyl (1-methyl-4-(5-(2,3,6-trifluoroisonicotinamido)pyridin-2-yl)-1H-1,2,3-triazol-5-yl)carbamate] yielded an EC50 of 203 nM.
